# Experimental data as given in patent publication EP0314866A2, “Novel alkylated hormonereleasing peptides and method of treating mammals therewith” (The Administrators of The Tulane University Educational Fund, priority 1987, dated 1989).
# Test system: plasma growth hormone
# Assay: Evaluation of peptides in vivo in sheep: plasma GH after IV injection of GRF analogs
# Set-up: species or system wether lambs
# Settings: lambs injected intravenously at 100 ng/kg; for Plasma GH (ng/ml) Post-inj Mean: two hours after treatment, means of 8 samples/animal from 8 animals
# Method: The purpose of this experiment is to compare the GH releasing activities of several GRF analogs selected for expected high potency and the lack of either a terminal amide or a D-amino acid. The analogs to be compared in wether lambs at 100 ng/kg (IV) are tri-isopropyl-GRF(1-29)-NH₂, tri-isopropyl-GRF(1-29)-OH, tri-isopropyl-GRF(1-40)OH, D-ala², arg^12,21-GRF (1-29)-OH, D-ala², arg^12,21-GRF(1-29)-NH₂, GRF(1-40)-OH and GRF(1-29)-NH₂
# A balanced 8 x 8 Latin square design will be used to test the following 8 treatments:
# The diet used in these evaluations is a standard sheep diet (pelleted) and fresh water ad libitum. All animals are fed one daily.
# The animals are individually identified by numbered ear tags and held in numbered metabolism cages.
# Sheep are maintained in individual metabolism cages at all times. Each sheep has previously received an indwelling jugular cannula which is flushed daily with heparinized (400-800 IU/ml) sterile saline to help maintain patency.
# All compounds are solubilized at 5 ug/ml in sterile saline containing 1% Tween 80 and injected intravenously at 100 ng/kg. Control lambs receive equal volumes of the vehicle only. The drugs are prepared each day just prior to injection to minimize sticking to the vials.
# Blood is collected in heparinized tubes at 15 minute intervals for one hours prior to and for two hours after the treatments are administered. Plasma samples are removed by centrifugation and frozen.
# Body weights of each animal is taken at the start of the experiment and once during treatment.
# Blood samples are taken from each animal at 15 minute intervals for 3 hours each day during the 8 day trial period. The samples are analyzed for plasma growth hormone (ng/ml). Data obtained are reported below as near values obtained for each treatment.
SMILES,Plasma GH (ng/ml) Peak,Plasma GH (ng/ml) Post-inj Mean
CC[C@H](C)[C@H](NC(=O)[C@H](C)NC(=O)[C@H](CC(=O)O)NC(=O)[C@H](C)NC(=O)[C@@H](N)Cc1ccc(O)cc1)C(=O)N[C@@H](Cc1ccccc1)C(=O)N[C@H](C(=O)N[C@@H](CC(N)=O)C(=O)N[C@@H](CO)C(=O)N[C@@H](Cc1ccc(O)cc1)C(=O)N[C@@H](CCCNC(=N)N)C(=O)N[C@@H](CCCCN)C(=O)N[C@H](C(=O)N[C@@H](CC(C)C)C(=O)NCC(=O)N[C@@H](CCC(N)=O)C(=O)N[C@@H](CC(C)C)C(=O)N[C@@H](CO)C(=O)N[C@@H](C)C(=O)N[C@@H](CCCNC(=N)N)C(=O)N[C@@H](CCCCN)C(=O)N[C@@H](CC(C)C)C(=O)N[C@@H](CC(C)C)C(=O)N[C@@H](CCC(N)=O)C(=O)N[C@@H](CC(=O)O)C(=O)N[C@H](C(=O)N[C@@H](CCSC)C(=O)N[C@@H](CO)C(=O)N[C@@H](CCCNC(=N)N)C(=O)N[C@@H](CCC(N)=O)C(=O)N[C@@H](CCC(N)=O)C(=O)NCC(=O)N[C@@H](CCC(=O)O)C(=O)N[C@@H](CO)C(=O)N[C@@H](CC(N)=O)C(=O)N[C@@H](CCC(N)=O)C(=O)N[C@@H](CCC(=O)O)C(=O)N[C@@H](CCCNC(=N)N)C(=O)NCC(=O)N[C@@H](C)C(=O)O)[C@@H](C)CC)C(C)C)[C@@H](C)O [GRF(1-40)-OH],92.3 ng/mL,25.5 ng/mL
"CC[C@H](C)[C@H](NC(=O)[C@H](C)NC(=O)[C@H](CC(=O)O)NC(=O)[C@H](C)NC(=O)[C@H](Cc1ccc(O)cc1)NC(C)C)C(=O)N[C@@H](Cc1ccccc1)C(=O)N[C@H](C(=O)N[C@@H](CC(N)=O)C(=O)N[C@@H](CO)C(=O)N[C@@H](Cc1ccc(O)cc1)C(=O)N[C@@H](CCCNC(=N)N)C(=O)N[C@@H](CCCCNC(C)C)C(=O)N[C@H](C(=O)N[C@@H](CC(C)C)C(=O)NCC(=O)N[C@@H](CCC(N)=O)C(=O)N[C@@H](CC(C)C)C(=O)N[C@@H](CO)C(=O)N[C@@H](C)C(=O)N[C@@H](CCCNC(=N)N)C(=O)N[C@@H](CCCCNC(C)C)C(=O)N[C@@H](CC(C)C)C(=O)N[C@@H](CC(C)C)C(=O)N[C@@H](CCC(N)=O)C(=O)N[C@@H](CC(=O)O)C(=O)N[C@H](C(=O)N[C@@H](CCSC)C(=O)N[C@@H](CO)C(=O)N[C@@H](CCCNC(=N)N)C(=O)N[C@@H](CCC(N)=O)C(=O)N[C@@H](CCC(N)=O)C(=O)NCC(=O)N[C@@H](CCC(=O)O)C(=O)N[C@@H](CO)C(=O)N[C@@H](CC(N)=O)C(=O)N[C@@H](CCC(N)=O)C(=O)N[C@@H](CCC(=O)O)C(=O)N[C@@H](CCCNC(=N)N)C(=O)NCC(=O)N[C@@H](C)C(=O)O)[C@@H](C)CC)C(C)C)[C@@H](C)O [tri-isopropyl-GRF(1-40)-OH, [N ^α-Isopropyl-Tyr¹, N ^ε-isopropyl-Lys^12,21]GRF(1-40)OH]",108.6 ng/mL,34.0 ng/mL
